The text below walks through data of patent publication US10112907B2, “Substituted indazoles for treating tendon and/or ligament injuries” (NOVARTIS AG, priority 2016, dated 2018).

Each structure is given as a SMILES string. Read-outs that look alike come from different tables or passages of the source.

Assay [1] deals with Tenomodulin (Tnmd) gene expression in rat tail tendon fascicles. As to the kind of experiment: Ex vivo assay, Tnmd mRNA in tendon fascicles (qPCR). The class given is cell-based, Sprague Dawley rat. For orientation: Real-time PCR tracks product formation cycle by cycle.
In assay [2] the test system is Scleraxis (Scx) gene expression in rat tail tendon fascicles. Description: Ex vivo assay, Scx mRNA in tendon fascicles (qPCR). Format: cell-based, Sprague Dawley rat.
In assay [3] the test system is collagen type I (Col1a2) gene expression in rat tail tendon fascicles. As to the kind of experiment: Ex vivo assay, Col1a2 mRNA in tendon fascicles (qPCR). Format: cell-based, Sprague Dawley rat.
The subject of assay [4] is Scleraxis (Scx) gene transcriptional activation in TT-D6 Scx-luciferase (ScxL) cell line. Description: SCX-LUC in vitro assay (Scx-luciferase reporter). Format: cell-based. The settings on record: Mus musculus. Background: A reporter such as luciferase makes a cellular process visible.
The mark [5] stands for this setting: 96 h, Table 3, four days, read-out: Ex vivo Tnmd (EC50 μM).
Setting [6] is: 96 h, Table 3, four days, read-out: Ex vivo Scx (EC50 μM).
Where [7] appears, read: 96 h, Table 3, four days, read-out: Ex vivo Col1a2 (EC50 μM).
The mark [8] stands for this setting: 96 h, Table 3, four days, read-out: Scx-Luc (EC50 μM).
[9] abbreviates: Table 1, read-out: Ex vivo Tnmd (EC50 uM).
Where [10] appears, read: Table 1, read-out: Ex vivo SCX (EC50 uM).
The mark [11] stands for this setting: Table 1, read-out: Ex vivo Col1a2 (EC50 uM).

For orientation: EC50 means the concentration needed to bring the measured effect to its halfway point. Regarding `N#CC[C@H](C1CCCC1)n1cc(-c2ncnc3[nH]ccc23)cn1` [reference compound], the EC50 in assay [1] (read-out: Ex vivo Tnmd (EC50 uM)) came to 0.74 µM; in assay [2] (read-out: Ex vivo SCX (EC50 uM)), 3.13 µM; in assay [3] (read-out: Ex vivo Col1a2 (EC50 uM)), 2.64 µM; in assay [4] (read-out: Scx-Luc (EC50 uM)), 0.12 µM.

For `Cc1cc(S(=O)(=O)N(C)C2CC(F)(F)C2)ccc1-c1ccc2[nH]nc(N)c2c1C` [Example 63, 4-(3-amino-4-methyl-1H-indazol-5-yl)-N-(3,3-difluorocyclobutyl)-N,3-dimethylbenzenesulfonamide], the EC50 in assay [1] (setting [5]) was 5.41 µM; in assay [2] (setting [6]) it was 1.38 µM; in assay [3] (setting [7]), 1.79 µM; in assay [4] (setting [8]), 0.222 µM.

For the compound `C1=C/COCc2cc(ccc2OCCN2CCCC2)Nc2nccc(n2)-c2cccc(c2)COC/1` [reference compound], the EC50 in assay [1] (setting [9]) worked out at 6.71 µM; in assay [2] (setting [10]) it was 3.32 µM; in assay [3] (setting [11]), 3.11 µM; in assay [4] (read-out: Scx-Luc (EC50 uM)), 1.06 µM.

Turning to `Cc1cc(S(=O)(=O)N[C@@H]2CCCC[C@H]2O)ccc1-c1ccc2[nH]nc(N)c2c1C` [Example 16, 4-(3-amino-4-methyl-1H-indazol-5-yl)-N-((1R,2R)-2-hydroxycyclohexyl)-3-methylbenzenesulfonamide], the half-maximal effective concentration (EC50) in assay [1] (setting [5]) came to 0.447 µM; in assay [2] (setting [6]), 1.75 µM; in assay [3] (setting [7]) it was 0.557 µM; in assay [4] (setting [8]), 0.638 µM.

Turning to `Cc1c(-c2ccc(S(=O)(=O)N[C@H]3C[C@@H](O)C3)cc2Cl)ccc2[nH]nc(N)c12` [Example 34, 4-(3-amino-4-methyl-1H-indazol-5-yl)-3-chloro-N-((1s,3s)-3-hydroxycyclobutyl)benzenesulfonamide], the EC50 was determined as 0.078 µM in assay [1] (setting [5]), 1.54 µM in assay [2] (setting [6]), 5.92 µM in assay [3] (setting [7]) and 0.614 µM in assay [4] (setting [8]).

For the compound `Cc1cc(S(=O)(=O)N2CC[C@@H](O)C2)ccc1-c1ccc2[nH]nc(N)c2c1Cl` [Example 7, (R)-1-((4-(3-amino-4-chloro-1H-indazol-5-yl)-3-methylphenyl)sulfonyl)pyrrolidin-3-ol], the EC50 is 0.463 µM in assay [1] (setting [5]), 5.35 µM in assay [2] (setting [6]), 3.31 µM in assay [3] (setting [7]) and 2.02 µM in assay [4] (setting [8]).

For `Cc1c(-c2ccc(S(=O)(=O)N[C@H]3C[C@](O)(C(F)(F)F)C3)cc2Cl)ccc2[nH]nc(N)c12` [Example 55, 4-(3-amino-4-methyl-1H-indazol-5-yl)-3-chloro-N-((1s,3s)-3-hydroxy-3-(trifluoromethyl)cyclobutyl)benzenesulfonamide], the EC50 in assay [1] (setting [5]) turned out to be 5.5 µM; in assay [2] (setting [6]), 3.14 µM; in assay [3] (setting [7]), 3.5 µM; in assay [4] (setting [8]), 0.228 µM.

On to `N#CCNC(=O)c1ccc(-c2ccnc(Nc3ccc(N4CCOCC4)cc3)n2)cc1` [reference compound], for which the EC50 amounted to 3.27 µM in assay [1] (setting [9]); 3.92 µM in assay [2] (setting [10]); 4.67 µM in assay [3] (setting [11]); 0.12 µM in assay [4] (Table 1, read-out: Scx-Luc (EC50 uM)).

With `COc1c(-c2ccc(S(=O)(=O)N[C@@H]3CCC[C@@H]3O)cc2C)ccc2[nH]nc(N)c12` [Example 73, 4-(3-amino-4-methoxy-1H-indazol-5-yl)-N-((1R,2S)-2-hydroxycyclopentyl)-3-methylbenzenesulfonamide], the EC50 is 6.51 µM in assay [1] (setting [5]), 5.23 µM in assay [2] (setting [6]), 3.77 µM in assay [3] (setting [7]) and 0.632 µM in assay [4] (setting [8]).

Turning to `Cc1cc(S(=O)(=O)N[C@@H]2CCC[C@@H]2O)ccc1-c1ccc2[nH]nc(N)c2c1C` [Example 18, 4-(3-amino-4-methyl-1H-indazol-5-yl)-N-((1R,2S)-2-hydroxycyclopentyl)-3-methylbenzenesulfonamide], the EC50 in assay [1] (setting [5]) amounted to 1.06 µM; in assay [2] (setting [6]), 2.52 µM; in assay [3] (setting [7]), 2.53 µM; in assay [4] (setting [8]), 0.468 µM.

`C[C@@H](O)c1nc2cnc3[nH]ccc3c2n1[C@@H]1CCCOC1` [reference compound]: the EC50 in assay [1] (setting [9]) was determined as 6.11 µM; in assay [2] (setting [10]), 0.08 µM; in assay [3] (setting [11]), 4.66 µM; in assay [4] (read-out: Scx-Luc (EC50 uM)), 1.34 µM.

Turning to `Cc1cc(S(=O)(=O)N[C@@H]2COCC[C@H]2O)ccc1-c1ccc2[nH]nc(N)c2c1C` [Example 45, 4-(3-amino-4-methyl-1H-indazol-5-yl)-N-((3R,4R)-4-hydroxytetrahydro-2H-pyran-3-yl)-3-methylbenzenesulfonamide], the EC50 in assay [1] (setting [5]) turned out to be 2.85 µM; in assay [2] (setting [6]), 4.44 µM; in assay [3] (setting [7]) it was 2.41 µM; in assay [4] (setting [8]) it was 1.25 µM.

Take `Cc1cc(S(=O)(=O)NC2CCC(F)(F)CC2)ccc1-c1ccc2[nH]nc(N)c2c1C` [Example 43, 4-(3-amino-4-methyl-1H-indazol-5-yl)-N-(4,4-difluorocyclohexyl)-3-methylbenzenesulfonamide]: the EC50 was determined as 4.87 µM in assay [1] (setting [5]), 3.37 µM in assay [2] (setting [6]), 3.45 µM in assay [3] (setting [7]) and 0.696 µM in assay [4] (setting [8]).

Consider `Cc1cc(S(=O)(=O)NC2CC(O)(Cc3ccccc3)C2)ccc1-c1ccc2[nH]nc(N)c2c1C` (stereo not drawn) [Example 51, 4-(3-amino-4-methyl-1H-indazol-5-yl)-N-(3-benzyl-3-hydroxycyclobutyl)-3-methylbenzenesulfonamide], for which the EC50 amounted to 6.8 µM in assay [1] (setting [5]), 6.98 µM in assay [2] (setting [6]), 6.39 µM in assay [3] (setting [7]) and 1.58 µM in assay [4] (setting [8]).

In the case of `Cc1cc(S(=O)(=O)N2CC(F)(F)C[C@H]2CO)ccc1-c1ccc2[nH]nc(N)c2c1Cl` [Example 54, (S)-(1-((4-(3-amino-4-chloro-1H-indazol-5-yl)-3-methylphenyl)sulfonyl)-4,4-difluoropyrrolidin-2-yl)methanol], the EC50 in assay [1] (setting [5]) came out at 0.706 µM; in assay [2] (setting [6]) it was 3.8 µM; in assay [3] (setting [7]), 4.42 µM; in assay [4] (setting [8]) it was 0.242 µM.

For `Nc1n[nH]c2ccc(-c3ccc(S(=O)(=O)N[C@@H]4CCC[C@@H]4O)cc3Cl)c(Cl)c12` [Example 69, 4-(3-amino-4-chloro-1H-indazol-5-yl)-3-chloro-N-((1R,2S)-2-hydroxycyclopentyl)benzenesulfonamide], the EC50 in assay [1] (setting [5]) is 3.84 µM; in assay [2] (setting [6]), 1.05 µM; in assay [3] (setting [7]), 1.48 µM; in assay [4] (setting [8]) it was 0.148 µM.

On to `Cc1cc(S(=O)(=O)N[C@H]2C[C@@](C)(O)C2)ccc1-c1ccc2[nH]nc(N)c2c1C` [Example 40, 4-(3-amino-4-methyl-1H-indazol-5-yl)-N-((1s,3s)-3-hydroxy-3-methylcyclobutyl)-3-methylbenzenesulfonamide], for which the EC50 amounted to 2.92 µM in assay [1] (setting [5]), 2.69 µM in assay [2] (setting [6]), 1.82 µM in assay [3] (setting [7]) and 0.988 µM in assay [4] (setting [8]).

Take `Cc1cc(S(=O)(=O)N2CCC[C@H]2CO)ccc1-c1ccc2[nH]nc(N)c2c1C` [Example 19, (S)-(1-((4-(3-amino-4-methyl-1H-indazol-5-yl)-3-methylphenyl)sulfonyl)pyrrolidin-2-yl)methanol]: the EC50 was 10 µM in assay [1] (setting [5]), 10 µM in assay [2] (setting [6]), 10 µM in assay [3] (setting [7]) and 0.431 µM in assay [4] (setting [8]).

As to `Cc1cc(S(=O)(=O)NC2CCOCC2)ccc1-c1ccc2[nH]nc(N)c2c1C` [Example 21, 4-(3-amino-4-methyl-1H-indazol-5-yl)-3-methyl-N-(tetrahydro-2H-pyran-4-yl)benzenesulfonamide], the EC50 in assay [1] (setting [5]) was determined as 6.64 µM; in assay [2] (setting [6]), 3.7 µM; in assay [3] (setting [7]) it was 5.32 µM; in assay [4] (setting [8]) it was 1.26 µM.

In the case of `Cc1cc(S(=O)(=O)N2CC[C@H](O)C2)ccc1-c1ccc2[nH]nc(N)c2c1C` [Example 5, (S)-1-((4-(3-amino-4-methyl-1H-indazol-5-yl)-3-methylphenyl)sulfonyl)pyrrolidin-3-ol], the EC50 in assay [1] (setting [5]) was found to be 1.6 µM; in assay [2] (setting [6]) it was 3.62 µM; in assay [3] (setting [7]) it was 2.63 µM; in assay [4] (setting [8]) it was 0.275 µM.

With `Cc1cc(S(=O)(=O)N2CC[C@@H](O)C2)ccc1-c1ccc2[nH]nc(N)c2c1C` [Example 4, (R)-1-((4-(3-amino-4-methyl-1H-indazol-5-yl)-3-methylphenyl)sulfonyl)pyrrolidin-3-ol], the EC50 in assay [1] (setting [5]) worked out at 0.513 µM; in assay [2] (setting [6]), 1.64 µM; in assay [3] (setting [7]), 1.55 µM; in assay [4] (setting [8]), 0.511 µM.

`Cc1cc(S(=O)(=O)N[C@H]2C[C@](O)(C(F)(F)F)C2)ccc1-c1ccc2[nH]nc(N)c2c1Cl` [Example 37, 4-(3-amino-4-chloro-1H-indazol-5-yl)-N-((1s,3s)-3-hydroxy-3-(trifluoromethyl)cyclobutyl)-3-methylbenzenesulfonamide]: the EC50 in assay [1] (setting [5]) is 1.69 µM; in assay [2] (setting [6]) it was 0.996 µM; in assay [3] (setting [7]), 1.82 µM; in assay [4] (setting [8]) it was 0.227 µM.

Turning to `C[C@@H](O)c1nc2cnc3[nH]ccc3c2n1[C@H]1CC[C@H](C#N)CC1` [reference compound], the EC50 was found to be 6.38 µM in assay [1] (setting [9]), 4.27 µM in assay [2] (setting [10]), 6.62 µM in assay [3] (setting [11]) and 2.69 µM in assay [4] (read-out: Scx-Luc (EC50 uM)).

Turning to `Cc1cc(S(=O)(=O)N[C@H]2C[C@@H](O)C2)ccc1-c1ccc2[nH]nc(N)c2c1C` [Example 12, 4-(3-amino-4-methyl-1H-indazol-5-yl)-N-((1s,3s)-3-hydroxycyclobutyl)-3-methylbenzenesulfonamide], the EC50 amounted to 10 µM in assay [1] (setting [5]), 1.73 µM in assay [2] (setting [6]), 10 µM in assay [3] (setting [7]) and 2.21 µM in assay [4] (setting [8]).
